The values that follow come from US6686366B1, “Compounds specific to adenosine A3 receptor and uses thereof” (OSI Pharmaceuticals, Inc., priority 1998, dated 2004).

pIC50, pKi: −log10 of the molar value. Read-outs that look alike come from different tables or passages of the source. Some results are limits rather than exact numbers.

Broadly, the pIC50 is −log10 of the IC50, conventionally taken in molar units. Broadly, the IC50 is the concentration at which inhibition is half-maximal. Lower therefore signals higher potency. The Ki is a measure of affinity in units of concentration, obtained from inhibition or displacement. One may read the pKi as the negative decadic logarithm of the Ki, by convention in mol/L. One may read the melting point as the temperature, or range, at which the solid turns liquid.

The target in one data set is A1 adenosine receptor (Homo sapiens, UniProt P30542). Conditions: cited from earlier work.
Data set [1] addresses T1, human A1 adenosine receptor (Homo sapiens, UniProt P30542).
T1 sequence (P30542 1-326): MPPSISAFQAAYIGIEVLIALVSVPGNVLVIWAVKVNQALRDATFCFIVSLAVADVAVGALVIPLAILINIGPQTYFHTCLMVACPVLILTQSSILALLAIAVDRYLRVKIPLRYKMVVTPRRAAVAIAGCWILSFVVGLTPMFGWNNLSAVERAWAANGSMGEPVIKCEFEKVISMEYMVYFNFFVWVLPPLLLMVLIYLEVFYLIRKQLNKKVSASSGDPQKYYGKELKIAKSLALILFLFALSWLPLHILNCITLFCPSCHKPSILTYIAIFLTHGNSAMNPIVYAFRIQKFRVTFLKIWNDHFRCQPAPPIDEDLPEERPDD
As to the kind of experiment: Displacement binding of [3H]CPX, yeast membranes expressing hA1R.

The next data set has as its target T2, human A3 receptor (Homo sapiens, UniProt P0DMS8).
T2 sequence (P0DMS8 1-318): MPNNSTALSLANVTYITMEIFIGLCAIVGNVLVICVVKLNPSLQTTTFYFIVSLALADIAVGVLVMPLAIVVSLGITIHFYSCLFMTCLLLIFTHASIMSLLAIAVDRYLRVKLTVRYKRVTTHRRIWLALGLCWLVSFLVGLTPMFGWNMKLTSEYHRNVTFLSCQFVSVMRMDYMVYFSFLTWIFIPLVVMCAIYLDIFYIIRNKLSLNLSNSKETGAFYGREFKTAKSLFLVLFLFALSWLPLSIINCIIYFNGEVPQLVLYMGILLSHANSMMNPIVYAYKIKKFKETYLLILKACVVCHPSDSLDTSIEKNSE
As to the kind of experiment: Displacement binding of [3H]CPX, yeast membranes expressing hA3R.

For data set [2], the target named is T3, human adenosine A1 receptor (Homo sapiens, UniProt P30542).
T3 sequence (P30542 1-326): T1 sequence (P30542 1-326)
As to the kind of experiment: Yeast β-Galactosidase reporter gene assay, inhibition of NECA-induced activity, strain CY12660. The following applies: for IC50: A1 Yeast IC50 (nM).

Data set [3] deals with T4, human A1 receptor subtype (Homo sapiens, UniProt P30542).
T4 sequence (P30542 1-326): T1 sequence (P30542 1-326)
As to the kind of experiment: biochemical.

Data set [4] concerns the target T5, human A2a receptor subtype (Homo sapiens, UniProt P29274).
T5 construct: expressed in transfected cells; host or cells: HEK-293 (Cadus clone #5), membranes
As to the kind of experiment: Adenosine 2a receptor subtype competition radioligand binding, [3H]CGS-21680, HEK293 membranes. The following applies: Table 13; concentration not given.

The target of data set [5] is T6, human A2b receptor subtype (Homo sapiens, UniProt P29275).
T6 construct: expressed in transfected cells; host or cells: HEK293, membranes
T6 sequence (P29275 1-332): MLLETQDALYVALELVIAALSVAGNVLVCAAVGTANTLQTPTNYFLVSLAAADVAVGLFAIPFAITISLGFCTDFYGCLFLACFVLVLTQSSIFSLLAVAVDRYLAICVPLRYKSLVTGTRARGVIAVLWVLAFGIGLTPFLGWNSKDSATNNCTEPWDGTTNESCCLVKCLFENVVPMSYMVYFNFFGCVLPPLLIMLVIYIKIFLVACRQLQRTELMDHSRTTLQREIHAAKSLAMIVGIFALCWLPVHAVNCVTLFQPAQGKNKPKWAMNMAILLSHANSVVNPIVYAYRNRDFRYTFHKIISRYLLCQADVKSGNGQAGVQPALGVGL
As to the kind of experiment: Adenosine 2b receptor subtype competition radioligand binding, [3H]DPCPX, HEK293 membranes. Conditions: Table 13.

Data set [6] addresses T7, human A3 receptor subtype (Homo sapiens, UniProt P0DMS8).
T7 sequence (P0DMS8 1-318): T2 sequence (P0DMS8 1-318)
As to the kind of experiment: Adenosine 3 receptor competition radioligand binding, [125I]AB-MECA, HEK293 membranes.

Data set [7] has as its target T4, human A1 receptor subtype. The following applies: Table 13; concentration not given.
Where [8] appears, read: Table 6, Effect of N6-Substituent.
The mark [9] stands for this setting: A1 Binding Ki (nM), Table 6, Effect of N6-Substituent.
Where [10] appears, read: A1 Binding Ki (nM), Table 10, Effect of N6-Substituent.
[11] abbreviates: Table 10, Effect of N6-Substituent.

T5 sequence (P29274 whole entry): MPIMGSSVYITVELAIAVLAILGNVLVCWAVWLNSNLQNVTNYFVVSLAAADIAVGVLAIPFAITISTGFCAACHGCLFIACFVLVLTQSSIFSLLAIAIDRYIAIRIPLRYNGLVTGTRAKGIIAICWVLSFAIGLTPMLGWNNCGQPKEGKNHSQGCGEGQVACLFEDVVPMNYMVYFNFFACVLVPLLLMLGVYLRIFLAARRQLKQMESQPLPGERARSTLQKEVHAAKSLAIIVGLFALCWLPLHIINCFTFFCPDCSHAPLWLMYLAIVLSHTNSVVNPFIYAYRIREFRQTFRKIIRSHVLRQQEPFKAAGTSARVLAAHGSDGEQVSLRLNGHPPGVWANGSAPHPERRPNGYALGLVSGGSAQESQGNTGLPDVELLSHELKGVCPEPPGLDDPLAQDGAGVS

Consider `CC(Cc1ccccc1)Nc1ncnc2c1ncn2[C@@H]1O[C@H](CO)[C@@H](O)[C@H]1O` (single isomer, unassigned; (-)) [PIA, (−)-N6-(2-phenylisopropyl)-adenosine], for which, at A1 adenosine receptor, the reported affinity entry was “approximately 50 nM”.

As for `O=c1nc2[nH]c3ccccc3nc-2c(=O)[nH]1` [Alloxazine], the pIC50 is 5.97 in data set [1] and 5.09 on human A3 receptor.

The compound `Cc1[nH]c2nc(-c3ccccc3)nc(NC3CCC(NS(C)(=O)=O)CC3)c2c1C` (stereo not shown) [Compound 604] came in with an IC50 in [2] (setting [8]) of over 10000 nM.

On to `CC(=O)NC1CCC(Nc2nc(-c3ccccc3)nc3[nH]c(C)c(C)c23)CC1` (stereo not shown) [Compound 605], for which the Ki in data set [3] (setting [9]) was over 10000 nM. In data set [2] (setting [8]), this compound came in with an IC50 of over 10000 nM.

The compound `Cc1[nH]c2nc(-c3ccccc3)nc(NC3CCC(OC(=O)c4ccccc4)CC3)c2c1C` (stereo not shown) [Compound 606] had a pIC50 in data set [2] of under 5.00.

For `Cc1[nH]c2nc(-c3ccccc3)nc(NC3CCC(OC(=O)c4ccccc4)CC3)c2c1C` (stereo not shown) [Compound 611], the pIC50 in [2] (read-out: A1 Yeast IC50, Table 6, Effect of N6-Substituent) was under 5.00.

Consider `Cc1[nH]c2nc(-c3ccccc3)nc(N[C@@H]3CCC[C@H]3O)c2c1C` [Compound 614], for which affinity in data set [3] (setting [9]) was put at a Ki of 32.1 nM.

In data set [3] (A1 Binding Ki (nM), Table 7, Effect of C2-Substituent), `Cc1[nH]c2nc(C3CCCC3)nc(N[C@H]3CC[C@H](O)CC3)c2c1C` [Compound 703] displayed a Ki of 444 nM. The same compound registered an IC50 in data set [2] (Table 7, Effect of C2-Substituent) of over 10000 nM.

For `Cc1[nH]c2nc(-c3ccc(F)cc3)nc(NC3CCC(O)CC3)c2c1C` (stereo not shown) [Compound 707], in data set [3], the pKi is 7.20.

`Cc1c(C)n(C)c2nc(-c3ccccc3)nc(N[C@H]3CC[C@H](O)CC3)c12` [Compound 800]: the pKi in [3] is 5.48. Further, the pIC50 in data set [2] is under 5.00.

Take `Cc1c(C)n(C(C)c2ccccc2)c2nc(-c3ccccc3)nc(NCC(C)C)c12` (stereo not shown) [Compound 903]: the Ki in data set [3] (A1 Binding Bi (nM), Table 9) came out at 35.3 nM.

In data set [3] (setting [10]), `Cc1[nH]c2nc(-c3ccccc3)nc(NCCNC=O)c2c1C` [Compound 1001] returned an inhibition constant Ki of 54.4 nM. This compound also returned an IC50 in [2] (setting [11]) of 1870 nM.

`CCC(=O)NCCNc1nc(-c2ccccc2)nc2[nH]c(C)c(C)c12` [Compound 1003] displayed a Ki in data set [3] (setting [10]) of 26.7 nM. Further, the IC50 in data set [2] (setting [11]) amounted to 196 nM.

`Cc1[nH]c2nc(-c3ccccc3)nc(NCCNC(=O)C3CC3)c2c1C` [Compound 1004]: in data set [3] (setting [10]), the affinity, expressed as Ki, was 32.8 nM. In data set [2] (setting [11]), this compound gave an IC50 of 546 nM.

Consider `Cc1[nH]c2nc(-c3ccccc3)nc(NCCNC(=O)C(C)C)c2c1C` [Compound 1005], for which the Ki in [3] (setting [10]) turned out to be 147 nM. In data set [2] (setting [11]), this compound had an IC50 of 3970 nM.

`CC(=O)C(=O)NCCNc1nc(-c2ccccc2)nc2[nH]c(C)c(C)c12` [Compound 1006]: in [3] (setting [10]), the affinity corresponds to a Ki of 152 nM. This compound registered an IC50 in data set [2] (setting [11]) of 2920 nM.

As to `Cc1[nH]c2nc(-c3ccccc3)nc(NCCNS(C)(=O)=O)c2c1C` [Compound 1007], the Ki in data set [3] (setting [10]) worked out at 692 nM.

`Cc1[nH]c2nc(-c3ccccc3)nc(NCCNC(=O)CCC(=O)O)c2c1C` [Compound 1008]: the affinity in [3] (setting [10]), expressed as Ki, was 93.1 nM. In addition, 3220 nM corresponded to half-maximal inhibition in data set [2] (setting [11]) (IC50).

Turning to `Cc1[nH]c2nc(-c3ccccc3)nc(NCCNC(=O)CCN)c2c1C` [Compound 1009], the Ki in data set [3] (setting [10]) was found to be 475 nM.

In data set [3] (setting [10]), `CC(=O)NCCCNc1nc(-c2ccccc2)nc2[nH]c(C)c(C)c12` [Compound 1010] gave a Ki of 675 nM. In addition, in data set [2] (setting [11]), the IC50 stood at 9380 nM.

The compound `CC(=O)OCCNc1nc(-c2ccccc2)nc2[nH]c(C)c(C)c12` [Compound 1011] displayed an inhibition constant Ki in [3] (setting [10]) of 122 nM. Besides, the IC50 in [2] (setting [11]) came to 2070 nM.

On to `CCC(=O)NCCCNc1nc(-c2ccccc2)nc2[nH]c(C)c(C)c12` [Compound 1013], for which, in [3] (setting [10]), the affinity corresponds to a Ki of 270 nM. In data set [2] (setting [11]), this compound returned an IC50 of 3010 nM.

In the case of `Cc1[nH]c2nc(-c3ccccc3)nc(NCCO)c2c1C` [Compound 1014], the affinity in data set [3] (setting [10]), expressed as Ki, was 385 nM. The compound further displayed an IC50 in data set [2] (setting [11]) of 2000 nM.

In data set [3] (setting [10]), `Cc1[nH]c2nc(-c3ccccc3)nc(NCCCCO)c2c1C` [Compound 1016] registered a Ki of 176 nM. Further, in data set [2] (setting [11]), inhibition was half-maximal at 5050 nM (IC50).

In data set [2] (Table 11, Effect of N6-Substituent), `CC(=O)NC(C)CNc1nc(-c2ccccc2)nc2[nH]c(C)c(C)c12` (stereo not shown) [Compound 1104] had an IC50 of 58.7 nM.

With `CNC(=O)NCCCNc1nc(-c2ccccc2)nc2[nH]c(C)c(C)c12` [Compound 1310], the “Binding A2a, value given in %” value in data set [4] is 76%.

In the case of `CC(=O)NCCCCNc1nc(-c2ccccc2)nc2[nH]c(C)c(C)c12` [Compound 1311], the affinity in data set [5], expressed as Ki, was 736 nM. The compound also had a pKi in [6] of 8.28.

Regarding `Cc1[nH]c2nc(-c3ccccc3)nc(NCCNC(=O)C3(N)CC3)c2c1C` [Compound 1313], in data set [4], the “Binding A2a, value given in %” value came out at 65%. Also, in [7], the “Binding A1, value printed in %” value is given as 30%.

The compound `CC(=O)NCCNc1nc(-c2ccccc2)nc2[nH]c(COc3ccccc3)cc12` [Example 17, 4-(2-acetylaminoethyl)amino-6-phenoxymethyl-2-phenyl-7H-pyrrolo[2,3d]pyrimidine] displayed a melting point of 196 to 197 °C.
